This is an account of results in US6051589A, “Diphenyloxazoline derivatives” (Bayer Aktiengesellschaft, priority 1994, dated 2000).

Molecules are shown by their SMILES. Read-outs that look alike come from different tables or passages of the source.

The nature of data set [1]: partition coefficient log p (octanol/water). Format: physicochemical.
For data set [2], the system named is mustard beetle larvae (Phaedon cochleariae). The experiment in a line: Phaedon Larvae Test. Format: in vivo. Conditions: concentration of active compound 0.1%, cabbage leaves, read-out: degree of mortality. The protocol: Solvent: 3 parts by weight of dimethylformamide
(§1) Emulsifier: 1 part by weight of alkylaryl polyglycol ether
To produce a suitable preparation of active compound, 1 part by weight of active compound is mixed with the stated amount of solvent and the stated amount of emulsifier, and the concentrate is diluted with water to the desired concentration.
After the desired time, the destruction in % is determined. 100% means that all the beetle larvae have been killed; 0% means that none of the beetle larvae have been killed.

In data set [3] the test system is red spider mite Tetranychus urticae. In words: Tetranychus Test (OP resistant/dipping treatment). In kind it is in vivo. Conditions: after 7 days, concentration of active compound 0.01%, all developmental stages, bean plants, OP resistant. As for the experimental part:
Tetranychus Test (OP resistant/dipping treatment)
Solvent: 7 parts by weight of dimethylformamide
as §1
To produce a suitable preparation of active compound, 1 part by weight of active compound is mixed with the stated amount of solvent and the stated amount of emulsifier, and the concentrate is diluted with emulsifier-containing water to the desired concentrations.
Bean plants (Phaseolus vulgaris) which are heavily infested with all developmental stages of the red spider mite Tetranychus urticae are dipped in a preparation of the active compound of the desired concentration.
After the desired time, the action in percent is determined. 100% means that all the spider mites have been killed, 0% means that none of the spider mites have been killed.

With `CC(C)(C)c1ccc(C2COC(c3c(F)c(F)cc(F)c3F)=N2)cc1` (stereo not shown) [Example 1, 4-(4-tert-butylphenyl)-2-(2,3,5,6-tetrafluorophenyl)-1,3-oxazoline], the logD in data set [1] (pH: 7.4, read-out: partition coefficient log p (octanol/water)) stood at 4.7. The mortality at 0.1 % in data set [2] came out at 65%. The same molecule gave a degree of mortality in data set [3] of 98%.
With `COc1c(F)cc(F)c(F)c1C1=NC(c2ccc(C(C)(C)C)cc2)CO1` (stereo not shown) [Example 2], the logD in data set [1] (pH 7.5, read-out: log p) amounted to 4.59. The mortality at 0.1 % in data set [2] is 65%. The degree of mortality in data set [3] came to 98%.
As to `CC(C)(C)c1ccc(C2COC(c3c(F)c(F)c(F)c(F)c3F)=N2)cc1` (stereo not shown) [Example 3], in data set [1] (pH 7.5, read-out: log p), the logD came to 5.12.
Same read-out and setting: the same measure for `CC(C)(C)c1ccc(C2COC(c3cc(F)c(F)c(F)c3F)=N2)cc1` (stereo not shown) [Example 4]: 4.78.
With `CC(C)(C)c1ccc(C2COC(c3cc(F)c(F)cc3F)=N2)cc1` (stereo not shown) [Example 5], in data set [1] (pH 7.5, read-out: log p), the logD worked out at 4.78. In data set [3], this molecule displayed a degree of mortality of 98%.
On to `CC(C)(C)c1ccc(C2COC(c3cc(F)c(Cl)cc3Cl)=N2)cc1` (stereo not shown) [Example 6], for which the logD in data set [1] (pH 7.5, read-out: log p) came to 5.65.
In the case of `CC(C)(C)c1ccc(C2COC(c3c(F)cc(F)cc3F)=N2)cc1` (stereo not shown) [Example 7], in data set [1] (pH 7.5, read-out: log p), the logD is 4.43.
Same read-out and setting: the same measure for `CC(C)(C)c1ccc(C2COC(c3c(F)ccc(F)c3F)=N2)cc1` (stereo not shown) [Example 8]: 4.45; for `CC(C)(C)c1ccc(C2COC(c3c(F)cc(C(F)(F)F)cc3F)=N2)cc1` (stereo not shown) [Example 9]: 5.13; for `CC(C)Cc1ccc(C2COC(c3c(F)c(F)cc(F)c3F)=N2)cc1` (stereo not shown) [Example 12]: 5.35.
In the case of `Cc1ccc(C2COC(c3c(F)c(F)cc(F)c3F)=N2)cc1` (stereo not shown) [Example 14], in data set [1] (pH 7.5, read-out: log p), the logD came to 3.69.

The mortality is the share of the test organisms that died.
